In publication PMC5761851, “Application of a phenotypic drug discovery strategy to identify biological and chemical starting points for inhibition of TSLP production in lung epithelial cells” (PLoS ONE, 2018):

Tests used:
[1] = system: PCP; assay: BioPrint panel: PCP (antagonist); assay type: binding; conditions: 1 micromolar
Excerpt: (§1) Supplement pone.0189247.s004.xlsx, sheet "Bioprint Selectivity Panel" | column: %

[2] = biological target: T1, CCK1 (CCKA) (Homo sapiens, UniProt P32238); assay: BioPrint panel: CCK1 (CCKA) (h) (agonist); assay type: binding; conditions: 1 micromolar, read-out: percentage of inhibition of activity
T1 construct: purchased Eurofins Pharma Discovery Services (KinaseProfiler; Cerep BioPrint panel)
Excerpt: as §1

[3] = biological target: T2, MAO-A (Rattus norvegicus, UniProt P21396); assay: BioPrint panel: MAO-A (antagonist); assay type: binding; conditions: 1 micromolar, read-out: percentage of inhibition of activity
T2 construct: purchased Eurofins Pharma Discovery Services (KinaseProfiler; Cerep BioPrint panel)
Excerpt: as §1

[4] = biological target: T3, CCK2 (CCKB) (Homo sapiens, UniProt P32239); assay: BioPrint panel: CCK2 (CCKB) (h) (agonist); assay type: binding; conditions: 1 micromolar, read-out: percentage of inhibition of activity
T3 construct: purchased Eurofins Pharma Discovery Services (KinaseProfiler; Cerep BioPrint panel)
Excerpt: as §1

[5] = biological target: T4, ACE-2 (Homo sapiens, UniProt Q9BYF1); assay: BioPrint panel: ACE-2 (h); assay type: biochemical; conditions: 1 micromolar
T4 construct: purchased Eurofins Pharma Discovery Services (KinaseProfiler; Cerep BioPrint panel)
Excerpt: as §1

[6] = biological target: T5, ACE (Homo sapiens, UniProt P12821); assay: BioPrint panel: ACE (h); assay type: biochemical; conditions: 1 micromolar
T5 construct: purchased Eurofins Pharma Discovery Services (KinaseProfiler; Cerep BioPrint panel)
Excerpt: as §1

[7] = biological target: T6, A2B (Homo sapiens, UniProt P29275); assay: BioPrint panel: A2B (h) (antagonist); assay type: binding; conditions: 1 micromolar, read-out: percentage of inhibition of activity
T6 construct: purchased Eurofins Pharma Discovery Services (KinaseProfiler; Cerep BioPrint panel)
Excerpt: as §1

[8] = biological target: T7, alpha 1B (Homo sapiens, UniProt P35368); assay: BioPrint panel: alpha 1B (h) (antagonist); assay type: binding; conditions: 1 micromolar, read-out: percentage of inhibition of activity
T7 construct: purchased Eurofins Pharma Discovery Services (KinaseProfiler; Cerep BioPrint panel)
Excerpt: as §1

[9] = biological target: T8, M4 (Homo sapiens, UniProt P08173); assay: BioPrint panel: M4 (h) (antagonist); assay type: binding; conditions: 1 micromolar, read-out: percentage of inhibition of activity
T8 construct: purchased Eurofins Pharma Discovery Services (KinaseProfiler; Cerep BioPrint panel)
Excerpt: as §1

[10] = biological target: T9, Lyn A kinase (Homo sapiens, UniProt P07948); assay: BioPrint panel: Lyn A kinase (h); assay type: biochemical; conditions: 1 micromolar, read-out: percentage of inhibition of activity
T9 construct: purchased Eurofins Pharma Discovery Services (KinaseProfiler; Cerep BioPrint panel)
Excerpt: as §1

[11] = biological target: T10, kappa (KOP) (Rattus norvegicus, UniProt P34975); assay: BioPrint panel: kappa (KOP) (agonist); assay type: binding; conditions: 1 micromolar, read-out: percentage of inhibition of activity
T10 construct: purchased Eurofins Pharma Discovery Services (KinaseProfiler; Cerep BioPrint panel)
Excerpt: as §1

[12] = biological target: T11, 5-HT transporter (Homo sapiens, UniProt P31645); assay: BioPrint panel: 5-HT transporter (h) (antagonist); assay type: binding; conditions: 1 micromolar, read-out: percentage of inhibition of activity
T11 construct: purchased Eurofins Pharma Discovery Services (KinaseProfiler; Cerep BioPrint panel)
Excerpt: as §1

[13] = system: I1; assay: BioPrint panel: I1 (agonist); assay type: binding; conditions: 1 micromolar
Excerpt: as §1

[14] = system: SKCa channel; assay: BioPrint panel: SKCa channel (antagonist); assay type: binding; conditions: 1 micromolar
Excerpt: as §1

T5 sequence (P12821 30-1306): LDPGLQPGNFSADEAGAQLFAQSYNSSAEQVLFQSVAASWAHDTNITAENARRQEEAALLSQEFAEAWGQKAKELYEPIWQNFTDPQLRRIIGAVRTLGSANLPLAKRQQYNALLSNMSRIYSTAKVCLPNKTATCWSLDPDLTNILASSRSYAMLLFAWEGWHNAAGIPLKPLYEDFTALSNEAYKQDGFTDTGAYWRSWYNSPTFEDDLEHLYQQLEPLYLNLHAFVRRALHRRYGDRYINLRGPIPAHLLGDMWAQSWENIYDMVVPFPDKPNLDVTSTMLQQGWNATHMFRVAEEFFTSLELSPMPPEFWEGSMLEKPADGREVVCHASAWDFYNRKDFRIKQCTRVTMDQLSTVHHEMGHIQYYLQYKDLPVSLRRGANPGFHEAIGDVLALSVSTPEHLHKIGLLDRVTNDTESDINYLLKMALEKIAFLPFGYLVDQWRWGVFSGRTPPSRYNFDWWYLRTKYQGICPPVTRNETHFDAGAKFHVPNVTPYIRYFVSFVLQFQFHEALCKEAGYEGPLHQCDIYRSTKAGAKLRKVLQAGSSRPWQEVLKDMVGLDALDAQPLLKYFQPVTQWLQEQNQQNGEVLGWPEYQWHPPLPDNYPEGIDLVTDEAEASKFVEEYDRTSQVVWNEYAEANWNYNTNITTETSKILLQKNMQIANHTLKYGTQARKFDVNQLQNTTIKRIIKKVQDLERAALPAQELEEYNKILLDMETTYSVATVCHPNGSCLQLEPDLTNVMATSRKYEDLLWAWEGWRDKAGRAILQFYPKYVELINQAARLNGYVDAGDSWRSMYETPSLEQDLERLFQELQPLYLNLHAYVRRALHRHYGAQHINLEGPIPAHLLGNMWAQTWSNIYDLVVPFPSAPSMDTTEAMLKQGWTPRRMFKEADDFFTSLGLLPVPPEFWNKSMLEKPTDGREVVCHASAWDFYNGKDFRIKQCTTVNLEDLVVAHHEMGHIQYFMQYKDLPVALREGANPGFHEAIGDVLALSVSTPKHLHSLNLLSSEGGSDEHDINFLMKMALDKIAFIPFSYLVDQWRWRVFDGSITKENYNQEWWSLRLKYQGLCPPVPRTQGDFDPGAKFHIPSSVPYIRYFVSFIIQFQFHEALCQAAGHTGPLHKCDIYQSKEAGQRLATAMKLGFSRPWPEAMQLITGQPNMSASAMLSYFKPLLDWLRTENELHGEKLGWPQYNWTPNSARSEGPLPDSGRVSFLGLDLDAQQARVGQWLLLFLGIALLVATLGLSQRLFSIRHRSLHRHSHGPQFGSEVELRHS
T11 sequence (P31645 whole entry): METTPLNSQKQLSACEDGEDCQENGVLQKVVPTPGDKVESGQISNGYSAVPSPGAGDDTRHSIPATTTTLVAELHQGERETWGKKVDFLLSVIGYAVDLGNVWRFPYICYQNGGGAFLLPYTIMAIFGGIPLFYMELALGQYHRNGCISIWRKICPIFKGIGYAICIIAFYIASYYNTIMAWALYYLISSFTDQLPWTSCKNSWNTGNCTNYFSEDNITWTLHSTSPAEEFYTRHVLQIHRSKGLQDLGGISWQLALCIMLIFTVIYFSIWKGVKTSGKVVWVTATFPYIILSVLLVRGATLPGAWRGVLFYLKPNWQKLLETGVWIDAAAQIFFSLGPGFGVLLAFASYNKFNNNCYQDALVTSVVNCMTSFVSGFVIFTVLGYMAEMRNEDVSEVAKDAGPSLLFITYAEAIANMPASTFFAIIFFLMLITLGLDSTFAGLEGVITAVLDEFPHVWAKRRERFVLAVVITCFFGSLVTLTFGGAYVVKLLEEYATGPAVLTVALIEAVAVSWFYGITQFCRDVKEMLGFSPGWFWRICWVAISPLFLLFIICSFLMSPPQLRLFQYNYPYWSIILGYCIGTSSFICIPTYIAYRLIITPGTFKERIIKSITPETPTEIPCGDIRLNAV
T10 sequence (P34975 whole entry): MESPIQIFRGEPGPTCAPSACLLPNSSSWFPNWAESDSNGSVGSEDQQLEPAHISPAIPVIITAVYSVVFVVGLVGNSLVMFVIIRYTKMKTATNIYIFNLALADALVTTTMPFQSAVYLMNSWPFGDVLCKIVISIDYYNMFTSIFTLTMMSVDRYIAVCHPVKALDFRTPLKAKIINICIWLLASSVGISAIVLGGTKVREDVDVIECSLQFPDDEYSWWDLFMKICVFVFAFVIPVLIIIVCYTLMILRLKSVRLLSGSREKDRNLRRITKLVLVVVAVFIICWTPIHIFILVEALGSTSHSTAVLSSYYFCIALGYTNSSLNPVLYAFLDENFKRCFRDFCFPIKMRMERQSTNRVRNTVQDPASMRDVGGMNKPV
T6 sequence (P29275 whole entry): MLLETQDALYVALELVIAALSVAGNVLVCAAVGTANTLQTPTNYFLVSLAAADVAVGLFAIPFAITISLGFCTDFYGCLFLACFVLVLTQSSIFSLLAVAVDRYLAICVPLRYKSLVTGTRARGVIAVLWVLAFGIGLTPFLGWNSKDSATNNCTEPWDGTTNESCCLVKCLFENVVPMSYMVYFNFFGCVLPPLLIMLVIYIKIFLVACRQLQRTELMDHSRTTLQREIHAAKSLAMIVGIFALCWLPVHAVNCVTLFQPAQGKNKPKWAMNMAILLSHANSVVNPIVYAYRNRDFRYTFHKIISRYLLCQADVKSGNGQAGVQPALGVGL
T7 sequence (P35368 whole entry): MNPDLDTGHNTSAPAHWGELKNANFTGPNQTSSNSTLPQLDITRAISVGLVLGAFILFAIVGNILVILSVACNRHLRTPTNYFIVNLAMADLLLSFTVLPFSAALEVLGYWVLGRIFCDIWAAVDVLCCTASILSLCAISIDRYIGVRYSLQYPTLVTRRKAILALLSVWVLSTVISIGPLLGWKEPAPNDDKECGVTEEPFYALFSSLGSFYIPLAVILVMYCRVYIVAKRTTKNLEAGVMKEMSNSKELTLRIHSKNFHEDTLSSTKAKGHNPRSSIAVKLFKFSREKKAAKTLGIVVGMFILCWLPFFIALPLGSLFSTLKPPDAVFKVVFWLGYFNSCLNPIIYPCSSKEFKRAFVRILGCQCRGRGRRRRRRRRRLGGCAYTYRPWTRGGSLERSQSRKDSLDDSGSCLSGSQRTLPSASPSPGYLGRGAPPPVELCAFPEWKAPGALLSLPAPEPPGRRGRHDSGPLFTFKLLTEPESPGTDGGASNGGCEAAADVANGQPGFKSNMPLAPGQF
T2 sequence (P21396 whole entry): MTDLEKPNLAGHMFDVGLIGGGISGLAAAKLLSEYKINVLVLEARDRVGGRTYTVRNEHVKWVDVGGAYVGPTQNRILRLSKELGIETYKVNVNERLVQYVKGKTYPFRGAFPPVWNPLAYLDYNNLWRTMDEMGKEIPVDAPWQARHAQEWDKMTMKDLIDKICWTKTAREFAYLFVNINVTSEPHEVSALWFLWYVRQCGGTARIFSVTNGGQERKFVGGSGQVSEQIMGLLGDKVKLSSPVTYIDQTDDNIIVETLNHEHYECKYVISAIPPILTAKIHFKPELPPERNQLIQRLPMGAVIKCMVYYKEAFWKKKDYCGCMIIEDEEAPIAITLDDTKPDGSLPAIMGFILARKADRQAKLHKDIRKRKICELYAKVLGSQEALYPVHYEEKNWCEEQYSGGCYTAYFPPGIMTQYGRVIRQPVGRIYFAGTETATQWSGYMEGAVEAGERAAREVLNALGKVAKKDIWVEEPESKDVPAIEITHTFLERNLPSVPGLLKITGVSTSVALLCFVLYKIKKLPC
T9 sequence (P07948 whole entry): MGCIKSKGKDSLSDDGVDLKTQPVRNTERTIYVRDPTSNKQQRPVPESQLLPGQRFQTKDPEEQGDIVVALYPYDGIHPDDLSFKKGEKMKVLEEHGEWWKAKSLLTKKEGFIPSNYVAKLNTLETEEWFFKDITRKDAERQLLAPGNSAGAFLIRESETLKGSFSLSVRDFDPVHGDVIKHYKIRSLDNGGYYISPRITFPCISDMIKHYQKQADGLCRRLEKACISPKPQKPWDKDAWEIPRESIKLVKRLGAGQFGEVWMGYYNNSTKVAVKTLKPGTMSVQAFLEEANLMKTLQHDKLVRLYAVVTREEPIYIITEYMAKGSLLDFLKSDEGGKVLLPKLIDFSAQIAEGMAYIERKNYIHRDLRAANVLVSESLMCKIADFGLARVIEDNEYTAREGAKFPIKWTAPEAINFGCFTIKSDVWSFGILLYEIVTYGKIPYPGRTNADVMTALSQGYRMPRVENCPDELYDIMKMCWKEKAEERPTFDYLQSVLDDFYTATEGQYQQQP
T3 sequence (P32239 whole entry): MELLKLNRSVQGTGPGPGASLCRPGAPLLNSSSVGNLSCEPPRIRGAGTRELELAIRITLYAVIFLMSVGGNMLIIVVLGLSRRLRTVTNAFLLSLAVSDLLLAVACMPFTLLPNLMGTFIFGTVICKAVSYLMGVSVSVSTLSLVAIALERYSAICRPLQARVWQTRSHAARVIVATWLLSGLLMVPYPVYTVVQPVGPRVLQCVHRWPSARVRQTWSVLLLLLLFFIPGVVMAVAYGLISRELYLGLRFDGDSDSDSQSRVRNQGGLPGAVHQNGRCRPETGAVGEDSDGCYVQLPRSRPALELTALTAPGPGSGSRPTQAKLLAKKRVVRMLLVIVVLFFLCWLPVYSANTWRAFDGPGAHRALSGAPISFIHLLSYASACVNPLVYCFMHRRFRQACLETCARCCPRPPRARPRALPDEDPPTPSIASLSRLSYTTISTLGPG

## Cn1cc(-c2cccc(-c3nc(C(=O)NC4C5CC6CC4CC(O)(C6)C5)c(N)nc3N)c2)cn1 (centres unmarked) [compound 4]
[1]
  percentage of inhibition of activity: -2.1%
[2]
  inhibition at 1 µM: -0.1%
[3]
  inhibition at 1 µM: 6.4%
[4]
  inhibition at 1 µM: -3.4%
[5]
  percentage of inhibition of activity: INTER
[6]
  percentage of inhibition of activity: INTER
[7]
  inhibition at 1 µM: -3%
[8]
  inhibition at 1 µM: 2.4%
[9]
  inhibition at 1 µM: 0.7%
[10]
  inhibition at 1 µM: 0.1%
[11]
  inhibition at 1 µM: 11.8%
[12]
  inhibition at 1 µM: -8.5%
[13]
  percentage of inhibition of activity: 11.5%
[14]
  percentage of inhibition of activity: -10.2%
